One substance from patent US20250276081A1, “Mucin-Active Proteases and Methods of Use” (priority 2022, published 2025) can be followed below.

The test system of data set [1] is mixed MCF10A^MUC1,±HER2 cells. The experiment in a line: Mixed cell suspension survival assay under anchorage-free conditions. The note with it: 1 nM, 72 h. It counts as cell-based. As for the experimental part: For mixed cell assays, MUC1ΔCT was induced with 200 ng/ml doxycycline for 24 h. A 1:1 mixture of 2.5×10^5 MCF10A^MUC1 and MCF10AMUC1, HER2 cells were seeded per well in a 24-well ultra-low attachment plate in 0.80 mL of complete media. 200 ng/ml doxycycline, 1 nM StcE, and 1 nM αHER2-eStcE were added as appropriate. The plate was incubated at 37° C., 5% CO2, 125 rpm. At t=0, 24, 48, and 72 h, cells were spun down at 350× g for 5 min, resuspended in 100 μL of PBS with 0.1% benzonase, and incubated at room temperature for 15 min. Cells were then resuspended in 200 μL of enzyme-free cell dissociation buffer and stained with Alexa Fluor 647 anti-human CD340 (erbB2/HER-2) antibody (24D2 clone) (BioLegend) and 500 nM Sytox Green Nucleic Acid Stain (Thermo Fisher Scientific) for 20 min at 4° C., according to manufacturer recommendations, prior to analysis using a BD Accuri C6 plus. All flow cytometry data were analyzed using FlowJo v. 10.0 (TreeStar).

Data set [2] can be described thus: In vivo biodistribution of IRdye 800CW-labeled StcE. The following applies: 0.25 mg/kg I.P.
For data set [3], the system named is leukemia cell lines (K562, CCRF-CEM, CCRF-HSB-2). Put plainly: NK cell killing assay with mucinase-treated leukemia cell lines. It counts as cell-based, human. The protocol:
NK cell isolation. PBMC aliquots were quickly thawed and diluted in 10 mL of RPMI containing DNAase to break up cell aggregates. Cells were incubated at 5% CO2, 37° C. for 30 min and subsequently counted in duplicate. Cells were then spun down at 600× g and resuspended in RPMI to a final cell concentration of 50×10^6 cells/mL. Isolation of NK cells was performed according to manufacturer's instructions using an NK cell magnetic isolation kit (Stem Cell Technologies). NK cells were cultured for at least 24 h before conducting experiments. For killing experiments, NK cells were cultured for 24 h in complete media containing 0.2-0.5 μg/mL IL-2 (BioLegend).
NK cell killing assays. Target cells were harvested by centrifugation and resuspended in serum-free RPMI containing 5 μM Cell Tracker Far Red (Thermo Fisher Scientific) at 5×10^5 cells/mL. Cells were then incubated for 30 min at 37° C.; where indicated, cells were treated with […] StcE. Following staining and StcE treatment, cells were spun down, washed twice with PBS containing 1 mM EDTA, and resuspended in complete media. Cells were diluted to 1×10^5 cells/mL in complete media containing 100 nM Sytox Green, and 100 μL of cell suspension was aliquoted into a flat bottom 96-well plate. Separately, NK cells were diluted to various cell concentrations to generate the indicated effector: target ratios in complete media containing 100 nM Sytox Green. Where indicated, these cell suspensions were treated with 20 nM StcE for 30 min, washed twice with PBS containing 1 mM ETDA, and resuspended in complete media containing 100 nM Sytox Green. 100 μL of these cell suspensions was then mixed with the target cell suspensions to generate a total volume of 200 μL. Cells were incubated at 37° C. for 4 h and analyzed by flow cytometry.

The subject of data set [4] is MCF10A cells expressing MUC1 ectodomain. The experiment in a line: MCF10A^MUC1 suspension survival assay. The class given is cell-based. The protocol:
MCF10A^MUC1 suspension survival assay. MCF10A cells expressing a cytoplasmic truncation 5 of MUC1 (MUC1ΔCT, also referred to as MUC1 ectodomain) were used to limit any possible cytoplasmic signaling^1. MUC1ΔCT was induced with 200 ng/ml doxycycline for 24 h. Uninduced and induced cells were seeded at 3×10^5 cells/well in a 24-well ultra-low attachment plate (Corning) in 0.75 mL of complete media. 200 ng/mL doxycycline and 10 nM StcE were added as appropriate. The plate was incubated at 37° C., 5% CO2, 125 rpm. At t=0, 24, 48, and 72 h, cells were spun down at 350×g for 5 min, resuspended in 200 μL of phosphate-buffered saline (PBS) with 0.1% benzonase (Sigma-Aldrich), and incubated at room temperature for 15 min. Cells were then resuspended in 200 μL of enzyme-free cell dissociation buffer (Thermo Fisher Scientific) and stained with 100 nM Calcein AM (Thermo Fisher Scientific) and 5 nM Sytox Red Dead Cell Stain (Thermo Fisher Scientific) for 20 min at 4° C., prior to analysis using a BD Accuri C6 plus. Videos of MCF10A^MUC1 cells freshly seeded on standard tissue culture plates (Corning) and treated with and without 1 nM StcE were generated with images taken at 30 min intervals for 18 h using an Incucyte. The Incucyte was set to 37° C. and 5% CO2, and cells were incubated in complete media with 200 ng/ml doxycycline.

Data set [5] concerns the target T1, cell surface MUC1 on HeLa cells (Homo sapiens, UniProt P15941).
T1 construct: subjected to flow cytometry for cell surface MUC1; endogenous in cells; host or cells: HeLa
Put plainly: In cellulo MUC1 cleavage activity assay. The class given is cell-based. The protocol:
Combinations of domain deletions and single point mutations yielded a total of eleven mutants for characterization, with expression yields ranging from 20-100 mg/L (Methods and FIG. 15B). In vitro activity against recombinant mucin substrates was quantified by densitometry following SDS-PAGE (FIG. 2b-c and FIG. 15C). […] To determine effective dissociation constants (Kd) of the mutants, cells were treated with the same concentrations of enzymes for 30 mins at 4° C. in the presence of the metal chelator and metalloprotease inhibitor EDTA, to prevent enzyme activity. In the latter case, binding was quantified via interaction of an anti-His tag antibody with the His-tagged mutants (FIG. 2d,g-h and FIG. 15f-g).
In cellulo MUC1 cleavage activity assay. Hela cells resuspended at 4.5-5.0×10^5 cells in 150 μL of complete media were allocated per well to a 96-well ultra-low attachment round bottom plate (Corning). 50 μL of the different StcE mutants in PBS were added to the wells, and the plate was incubated at 37° C. for 1 h. […] For data analysis, the Alexa Fluor 647 mean fluorescence intensity of unstained and PBS-treated samples were used to define 0% and 100% cell surface MUC1, respectively, and each sample was normalized to percent MUC1 within each replicate. […]

T1 sequence (P15941 24-1255): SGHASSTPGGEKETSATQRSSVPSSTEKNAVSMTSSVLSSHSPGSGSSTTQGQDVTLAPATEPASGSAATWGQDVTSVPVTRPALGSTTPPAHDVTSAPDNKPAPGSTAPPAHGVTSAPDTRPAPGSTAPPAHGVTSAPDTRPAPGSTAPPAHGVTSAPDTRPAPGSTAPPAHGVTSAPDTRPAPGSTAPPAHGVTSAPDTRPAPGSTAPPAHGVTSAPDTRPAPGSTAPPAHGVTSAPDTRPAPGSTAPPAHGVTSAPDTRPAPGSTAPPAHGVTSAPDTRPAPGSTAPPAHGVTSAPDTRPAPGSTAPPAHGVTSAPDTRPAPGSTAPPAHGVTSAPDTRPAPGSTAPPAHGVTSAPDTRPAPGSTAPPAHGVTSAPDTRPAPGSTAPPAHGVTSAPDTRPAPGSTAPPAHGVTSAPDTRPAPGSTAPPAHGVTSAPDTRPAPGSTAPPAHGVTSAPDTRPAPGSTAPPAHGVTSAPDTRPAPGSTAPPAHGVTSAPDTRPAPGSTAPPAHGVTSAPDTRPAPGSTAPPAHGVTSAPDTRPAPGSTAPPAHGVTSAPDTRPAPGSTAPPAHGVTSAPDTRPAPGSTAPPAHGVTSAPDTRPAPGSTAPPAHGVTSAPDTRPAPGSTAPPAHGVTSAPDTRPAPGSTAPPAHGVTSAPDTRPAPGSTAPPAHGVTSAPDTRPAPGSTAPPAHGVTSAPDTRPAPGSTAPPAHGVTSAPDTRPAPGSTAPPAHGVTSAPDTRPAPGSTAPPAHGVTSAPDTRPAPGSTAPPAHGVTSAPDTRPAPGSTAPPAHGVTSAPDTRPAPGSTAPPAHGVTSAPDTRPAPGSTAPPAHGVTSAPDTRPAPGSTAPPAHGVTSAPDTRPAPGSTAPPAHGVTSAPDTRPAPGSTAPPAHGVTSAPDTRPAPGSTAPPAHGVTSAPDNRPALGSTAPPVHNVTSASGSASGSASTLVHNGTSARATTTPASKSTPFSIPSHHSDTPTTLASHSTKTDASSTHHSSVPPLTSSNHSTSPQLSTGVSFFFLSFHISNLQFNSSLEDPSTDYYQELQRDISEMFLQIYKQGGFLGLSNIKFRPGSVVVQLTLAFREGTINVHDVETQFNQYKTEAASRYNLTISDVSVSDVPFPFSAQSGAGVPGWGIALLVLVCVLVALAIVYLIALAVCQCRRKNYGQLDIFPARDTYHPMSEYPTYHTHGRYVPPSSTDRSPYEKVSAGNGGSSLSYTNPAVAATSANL

With “StcE: secreted protease of C1 esterase inhibitor, zinc metalloprotease pan mucinase from E. coli O157:H7; SEQ ID NO:1”, the “Suspension survival in mixed HER2^+ and HER2- populations” value in data set [1] is listed as “cell death in both populations”. In data set [2], the “Time remaining in circulation” value is given as “at least 20 hours”. In data set [3] (NK cells treated with StcE), the “NK cell killing after StcE treatment of the NK cells” value is “no effect relative to untreated control”. In data set [3] (target cells treated with StcE, 4 h with NK cells), the “NK cell killing of StcE-treated leukemia cells” value is recorded as “increased NK cell surveillance”. The “Cytotoxicity of StcE treatment of leukemia cell lines” value in data set [3] (without NK cells, n=3) is reported as “statistically significant baseline toxicity increase”. In addition, in data set [4] (10 nM StcE, ultralow attachment plates, over 72 h), the “Viability of MUC1-overexpressing cells under anchorage-free conditions” value is “rapid cell death”. In data set [4] (nanomolar doses (1 nM StcE)), the “Toxicity to MUC1-expressing cells in standard tissue culture plates” value is recorded as “low toxicity”. Moreover, the “Concentration at which the enzyme is active” value in data set [5] is given as “single digit nanomolar”.
